# Reference: patent publication US8536132B2, “Lymphatic zip codes in tumors and pre-malignant lesions” (Sanford-Burnham Medical Research Institute, priority 2006, dated 2013)
# “Also recorded” adds a separate entry of the source. Ends that are not written are not given here. * marks the point of attachment. FITC = O=C1OC2(c3ccc(O)cc3Oc3cc(O)ccc32)c2ccc(NC(=S)*)cc21
# Tests used:
# TRAMP PIN lesions = assay: In vivo phage homing to TRAMP pre-malignant (PIN) lesions; set-up: species or system mouse; settings: phage clones tested in vivo individually
# Method: (§1) The following cell lines were maintained in DMEM supplemented with 10% FCS: C8161 human melanoma, MDA-MB-435 human breast cancer, KRIB human osteosarcoma, and human prostate cancer cells PPC1, DU145. LNCaP human prostate cancer cell line was grown in RPMI 1640 medium with 10 mM HEPES, 1 mM sodium pyruvate and 1.5 g/L sodium bicarbonate supplemented with 10% FCS. M12 human prostate cancer cell line was cultured in RPMI 1640 with 5 μg/ml insulin-transferrin-sodium selenite (ITS), 2.5 μg/ml fungizone, 50 μg/ml gentamycin, 0.2 μM dexamethasone, 10 ng/ml epidermal growth factor (EGF), and 5% FCS (Bae et al., 1998). To produce tumors, nude BALB/c and C56BL/6 mice were subcutaneously (C8161, KRIB, and PPC1) or orthotopically ([…], PPC1, DU145, M12, and LNCaP) injected with 1×10^6 tumor cells. Transgenic mouse tumor models included TRAMP prostate cancer, MMTV-PyMT breast cancer, and K14-HPV16 cervical cancer. To initiate cervical carcinogenesis, female K14-HPV16 mice (Arbeit et al., 1994) were treated with 17β-estradiol (E2; (Arbeit et al., 1996; Giraudo et al., 2004). Briefly, one-month-old virgin female transgenic (heterozygous K14-HPV16, 1203#1) and nontransgenic (FVB/n) mice were anesthetized with isoflurane, and continuous release pellets that deliver E2 at doses of 0.05 mg over 60 days (Innovative Research of America, Sarasota, Fla., USA) were implanted subcutaneously in the dorsal back skin. Subsequent pellets were implanted at 3 and 5 months of age for a total of 6 months of hormone treatment. K14-HPV16 mice were maintained in the FVB/n background (FVB/n; The Jackson Laboratory). The mice were maintained in accordance with the University of California, San Francisco (UCSF) institutional guidelines governing the care of laboratory mice. The animal experimentation was approved by Animal Research Committees at UCSF or The Burnham Institute.
# (§2) In vivo homing specificity of phage was tested as described (Hoffman, 2004). Briefly, mice bearing tumors were anesthetized and intravenously injected with 5×10^9 pfu of phage. After 7 min, the mice were perfused through the heart with PBS containing 0.5% BSA. The tumor and control organs were dissected from each mouse and the phage were rescued and tittered. For histology analysis, the mice were perfused with 4% PFA 30 min after the injection of phage. Tissues were embedded in Tissue-Tek O.C.T. and 5 μm sections were prepared for phage immunostaining.
# [1] = test system: cell suspension derived from pre-malignant prostate lesions; assay: Phage binding to cell suspension derived from pre-malignant prostate lesions; assay type: cell-based, mouse; settings: phage clones
# Method: (§3) An NNK-encoded CX7C library display on T7Select415-1 phage (Novagen) was prepared as previously described (Laakkonen et al., 2002). Phage selection and validation have been described (Hoffman, 2004). A two-step procedure was designed for the selection of peptides targeting the tumor lymphatic vessels of pre-malignant prostate lesions and prostate tumor. First, the phage library was incubated with cells derived from normal prostate to subtract the phage that bind to normal prostate. Second, the anti-podoplanin magnetic beads were used to isolate lymphatic endothelial cells. 2-3 rounds of ex vivo selection and 2-3 rounds of in vivo selections were performed. For the ex vivo selections, cell suspensions were prepared from normal prostates of tumor-free littermates of TRAMP mice, pre-malignant prostates of 14- to 16-week-old TRAMP mice, and tumor tissues of 25- to 28-week-old TRAMP mice. Collagenase IA (1 mg/ml, Sigma) was used to disperse the tissues. About 1×10^7 normal prostate cells were incubated at 4° C. for 3 hrs with […] plaque forming units (pfu) of T7 phage displaying a CX7C peptide library. The samples were centrifuged at 1200 rpm for 10 min, the supernatant (the normal prostate-subtracted phage library) was recovered and then incubated overnight at 4° C. with 5×10^7 cells derived from pre-malignant prostate tissue or prostate tumor. The cells were washed to remove unbound phage, incubated with rat anti-mouse podoplanin for 45 min at 4° C., and washed three times with cold PBS containing 0.5% BSA. Podoplanin-positive cells were then isolated using M450 sheep anti-rat IgG Dynabeads (M450; Dynal, Oslo, Norway). Phage that bound to the podoplanin-positive cell population were rescued and amplified in E. coli. In vivo phage library screening was performed as described (Laakkonen et al., 2002).
# K14-HPV16 skin cancer = assay: In vivo homing to K14-HPV16 skin cancer; set-up: species or system mouse; settings: i.v. injection, K14-HPV16 mice
# Method: as §1, §2
# [2] = test system: MDA-MB-435 orthotopic xenografts; assay: In vivo phage homing to MDA-MB-435 orthotopic xenografts; set-up: species or system mouse; settings: for phage homing to MDA-MB-435 tumors (in words): i.v. injected phage
# Method: as §1, §2
# [3] = test system: K14-HPV16/E2 cervical tumors; assay: In vivo phage homing to K14-HPV16/E2 cervical tumors; set-up: species or system mouse; settings: for phage homing to K14-HPV16/E2 cervical tumors (in words): i.v. injected phage
# Method: as §1, §2
# normal tissues = assay: In vivo phage homing to normal and control tissues; set-up: species or system mouse; settings: i.v. injected phage
# Method: as §2
# CXCR4 = target: T1, CXCR4 (Homo sapiens, UniProt P61073); assay: Phage binding to CXCR4-transfected 293T cells; settings: 293T cells
# T1 construct: expressed in transfected cells; host or cells: 293T cells, transient transfection with FuGene 6
# Method: (§4) The 293T cells were transfected with plasmids encoding CXCR4 (Helbig et al., 2003) or VEGFR2 (Borges et al., 2000) using FuGene 6 transfection reagent (Roche Diagnostics, Indianapolis, Ind.). Briefly, plasmid (10 μg) was mixed with 900 μl of serumfree DMEM and 50 μl of FuGene and incubated for 15 min at room temperature before adding the mixture to the cells. The cells were detached using EDTA after 48 hrs post transfection and washed with PBS containing 1% BSA. Phage (5×10^9 pfu) were incubated with the transfected cells and bound phage were rescued and titrated. For competitive binding assay, the cognate peptide (150 μg/ml) or antibody (50 μg/ml) was added during incubating of the phage with cells. Targeted proapoptotic peptide treatment of tumor-bearing mice Prostate cancer model. Orthotopic xenografted prostate tumors were established by injecting 1×10^6 PPC1 human prostate cancer cells into the mouse prostate. Fifteen days post inoculation, the mice were intravenously injected with D(KLAKLAK)2-CREAGRKAC (SEQ ID NO:41), an equimolar mixture of D(KLAKLAK)2 (SEQ ID NO:19) and CREAGRKAC (SEQ ID NO:6), or PBS. Biweekly injections of 100 μg/dose/mouse were given for three weeks. Melanoma model. Nude BALB/c mice were subcutaneously injected with 1×10^6 C8161 human melanoma cells. Treatment started when mean tumor volumes reached about 100 mm3. Mice with size-matched tumors were randomized into three groups. The therapeutic group received a chimera of tumor homing peptide with the proapoptotic motif (D(KLAKLAK)2-CLSDCGKRKC; SEQ ID NO:42). The control groups received an equimolar mixture of CLSDGKRKC (SEQ ID NO:4) and D(KLAKLAK)2 (SEQ ID NO:19), or PBS alone. The tumor-bearing mice were intravenously injected with 200 μg/dose/mouse once a week for three weeks. The mice were monitored for weight loss, and tumors were dissected and weighed at the termination of the experiment. Histological analysis was performed to evaluate the density of tumor lymphatics and blood vessels. The animal experiments reported here were approved by The Burnham Institute Animal Research Committee.
# TRAMP prostate tumors = assay: In vivo phage homing to TRAMP prostate tumors; set-up: species or system mouse; settings: i.v. injected phage clone
# Method: as §1, §2
# [4] = test system: tumor derived cell suspensions (TRAMP); assay: Phage binding to TRAMP tumor derived cell suspensions; assay type: cell-based, mouse; settings: phage clones
# Method: as §3
# C8161 xenografts = assay: In vivo phage homing to C8161 xenograft tumors; set-up: species or system mouse; settings: i.v. injected phage, C8161 xenograft mice
# Method: as §1, §2
# [5] = test system: cell suspensions prepared from C8161 tumors; assay: Phage binding to cell suspensions prepared from C8161 tumors; assay type: cell-based, mouse; settings: phage clone, ex vivo
# [6] = test system: K14-HPV16/E2 cervical dysplasia; assay: In vivo phage homing to K14-HPV16/E2 cervical dysplasia (CIN-3); set-up: species or system mouse; settings: for phage homing to K14-HPV16/E2 pre-malignant cervical lesions (in words): i.v. injected phage
# Method: as §1, §2
# [7] = test system: PPC1 orthotopic xenografts; assay: Targeted proapoptotic peptide treatment of mice with PPC1 orthotopic xenografts; assay type: in vivo; settings: 100 μg/dose/mouse biweekly i.v., three weeks
# Method: as §4
# [8] = test system: K14-HPV16/E2 cervical lesions; assay: Distribution of fluorescent peptides in K14-HPV16/E2 mice with cervical lesions; assay type: in vivo, mouse; settings: for fluorescent peptide in normal cervix and control tissues: 100 μg i.v., 2 hrs; for fluorescent peptide in K14-HPV16/E2 cervical lesions/tumors (in words): labeled peptide i.v.
# Method: The frozen sections were prepared for immunohistological analysis.
# [9] = phage homing in vivo, MDA-MB-435 orthotopic xenografts
# [10] = phage homing in vivo, K14-HPV16/E2 cervical cancer / cervical tumors
# [11] = phage homing in vivo, K14-HPV16/E2 cervical dysplasia
# [12] = listed as Fluoresceinlabeled LyP-2 peptide
# T1 sequence (P61073 whole entry, species assumed): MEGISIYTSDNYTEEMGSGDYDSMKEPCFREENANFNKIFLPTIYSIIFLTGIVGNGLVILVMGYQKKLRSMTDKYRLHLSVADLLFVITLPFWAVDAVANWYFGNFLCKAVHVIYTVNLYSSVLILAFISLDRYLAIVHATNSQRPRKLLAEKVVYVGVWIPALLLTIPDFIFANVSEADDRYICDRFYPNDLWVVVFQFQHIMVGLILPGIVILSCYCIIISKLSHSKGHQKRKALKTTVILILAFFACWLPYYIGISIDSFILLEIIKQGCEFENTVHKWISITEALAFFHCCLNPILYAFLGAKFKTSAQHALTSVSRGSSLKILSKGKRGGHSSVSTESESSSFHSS
substance,measurement,setting,value
CASLSCR,enrichment to pre-malignant TRAMP lesions relative to nonrecombinant phage,TRAMP PIN lesions,12 fold
same,binding to cell suspension from pre-malignant prostate lesions (in words),[1],bound
"CGNKRTRGC [LyP-1, previously described lymphatic homing peptide recognizing breast cancer lymphatics and tumor cells, reference compound]",homing to K14-HPV16 skin cancers (in words),K14-HPV16 skin cancer,homed to the K14-HPV16 skin cancer lymphatics
same,phage homing to MDA-MB-435 tumors (in words),[2],homes to the MDA-MB-435 tumors
same,phage homing to MDA-MB-435 tumors (in words),[2]; listed as LyP-1 phage,homed to MDA-MB-435 tumors
same,phage homing to K14-HPV16/E2 cervical tumors (in words),[3],not to the cervical tumors
same,phage homing to normal breast tissue,normal tissues,Neither phage homed
same,phage homing to normal cervix,normal tissues,Neither phage homed
same,phage binding to CXCR4-transfected 293T cells (in words),CXCR4,did not bind
CKTRVSCGV,enrichment in TRAMP tumors relative to nonrecombinant phage,TRAMP prostate tumors,about 30 fold
same,binding to TRAMP tumor derived cell suspensions (in words),[4],robust binding
CLDGGRPKC,phage homing to C8161 tumors (in words),C8161 xenografts,homed selectively to the tumors
same,binding to cell suspensions prepared from C8161 tumors (in words),[5],bound to cell suspensions prepared from C8161 tumors
"CNRRTKAGC [LyP-2, homing peptide from K14-HPV16 dysplastic skin lesions; homes to cervical lesion lymphatics]",homing to K14-HPV16 skin cancers (in words),K14-HPV16 skin cancer,homed to the lymphatics associated with dysplasias and squamous cell carcinomas in the skin; also recorded: homed to the K14-HPV16 skin cancer lymphatics
same,Fold over control phage,[2]; [9],3 fold
same,Specific Homing,[2]; [9],No
same,phage homing to K14-HPV16/E2 cervical tumors (in words),[3],homes to the cervical cancers and pre-malignant lesions
same,phage homing to K14-HPV16/E2 cervical tumors (in words),[3]; listed as LyP-2 phage,Significantly more; also recorded: robust homing
same,Fold over control phage,[3]; [10],22 fold
same,Specific Homing,[3]; [10],Yes
same,phage homing to K14-HPV16/E2 pre-malignant cervical lesions (in words),[6],homes to the cervical cancers and pre-malignant lesions
same,phage homing to K14-HPV16/E2 pre-malignant cervical lesions (in words),[6]; listed as LyP-2 phage,Significantly more; also recorded: robust homing
same,Fold over control phage,[6]; [11],17 fold
same,Specific Homing,[6]; [11],Yes
same,phage homing to normal breast tissue,normal tissues,Neither phage homed
same,phage homing to normal cervix,normal tissues,Neither phage homed
same,phage homing to normal cervix,normal tissues; listed as LyP-2 phage,not to normal cervix
CSGGKVLDC,enrichment to pre-malignant TRAMP lesions relative to nonrecombinant phage,TRAMP PIN lesions,14 fold
same,binding to cell suspension from pre-malignant prostate lesions (in words),[1],bound
CSMSAKKKC,enrichment in TRAMP tumors relative to nonrecombinant phage,TRAMP prostate tumors,about 30 fold
same,binding to TRAMP tumor derived cell suspensions (in words),[4],robust binding
D(KLAKLAK)2-CREAGRKAC (KLAKLAKKLAKLAKCREAGRKAC) [chimera of REA homing peptide with the pro-apoptotic motif D(KLAKLAK)2],number of tumor lymphatics (podoplanin staining),[7],greatly reduced
same,tumor blood vessel count/density (MECA-32 staining),[7],unaffected
same,tumor volume / tumor growth,[7],unaffected
same,number of tumor lymphatics (podoplanin staining),[7]; listed as REA conjugate,reduced the number of tumor lymphatics
same,tumor blood vessel count/density (MECA-32 staining),[7]; listed as REA conjugate,no effect
same,tumor volume / tumor growth,[7]; listed as REA conjugate,no effect
FITC-LyP-2: fluorescein-labeled LyP-2 peptide (CNRRTKAGC) ({FITC}-CNRRTKAGC; cysteine pairing not given here),fluorescent peptide in normal cervix and control tissues,[8],Little or no fluorescence
same,fluorescent peptide in normal cervix and control tissues,[8]; [12],No peptide accumulation was observed
same,overlap with podoplanin in cervical lesions,[8]; fluorescein-labeled peptide,82%
same,co-localization with MECA-32,"[8]; fluorescein-labeled peptide, cervical lesions",not with MECA-32
same,fluorescent peptide in K14-HPV16/E2 cervical lesions/tumors (in words),[8]; [12],accumulated in the cervical lesions
same,fluorescent peptide in K14-HPV16/E2 cervical lesions/tumors (in words),[8]; listed as fluorescein labeled-LyP-2 peptide,homes to cervical carcinoma
